Tests used:
[1] = test system: acute leukemia cell line RS4; 11; assay: MTT proliferation assay, RS4;11 cells; type: cell-based; conditions: Homo sapiens, 72 h after drug administration
Excerpt: (§1) Cell lines for test: acute leukemia cell line RS4; 11 and multiple myeloma cell line MM.1S
(§2) Test method: MTT (thiazole blue) method, which was also called MTT colorimetry assay, was a method used to detect cell survival and growth. The principle of the assay was that the succinate dehydrogenase in mitochondria of living cells could reduce the exogenous MTT to water-insoluble blue-purple crystal formazan and deposit it in the cells, while dead cells have no such function. Dimethyl sulfoxide (DMSO) could dissolve formazan in cells, and its light absorption value was measured at 550 nm wavelength by enzyme-linked immunoassay, which could indirectly reflect the number of living cells. Within a certain range of cell numbers, the amount of MTT crystal formation is proportional to the number of cells. This method has been widely used in the activity detection of some biologically active factors, large-scale anti-tumor drug screening, cytotoxicity test, and tumor radiosensitivity determination.
(§3) The concentration gradient of the compound was as follows: 0-25.6 pM-128 pM-640 pM-3.2 nm-16 nM-80 nM-400 nM-2 μM-10 μM; (n=3)
(§4) 72 h after drug administration, 20 μl per well of MTT working solution (5 mg/ml) was added, and incubated at 37° C. for 4 h, centrifuged in plate centrifuge at 1000 rpm/min for 5 min. 180 μl of medium was aspirated and 150 μl DMSO was added in RS4; 11 groups; 200 μl of medium was aspirated and 150 μl DMSO was added in MM.1S group; the mixture was shaken and mixed on microwell shaker, and the bottom of the plate was wiped, and the optical density (OD) was measured at 550 nm by microplate reader. The IC50 of the half inhibitory concentration was calculated by LOGIT method.

[2] = test system: multiple myeloma cell line MM.1S; assay: MTT proliferation assay, MM.1S cells; type: cell-based; conditions: Homo sapiens, MM1.S, 72 h after drug administration
Excerpt: as §1, §2, §3, §4

| SMILES | IC50 [1] [nM] | IC50 [2] [nM] |
| --- | --- | --- |
| Cc1sc2c(c1C)C(c1ccc(Cl)cc1)=N[C@@H](CC(=O)Nc1ccc(OCCOCCOCCOCCNc3cccc4c3C(=O)N(C3CCC(=O)NC3=O)C4=O)cc1)c1nnc(C)n1-2 (some centres unmarked) [ARV-825, reference compound] | 20 to 100 | 20 to 100 |
| Cc1sc2c(c1C)C(c1ccc(Cl)cc1)=N[C@@H](CC(=O)NN1CCN(C(=O)CCC(=O)Nc3cccc4c3CN(C3CCC(=O)NC3=O)C4=O)CC1)c1nnc(C)n1-2 (stereo partly drawn) [Example 1, 4-(4-(2-((S)-4-(4-chlorophenyl)-2,3,9-trimethyl-6H-thieno[3,2-f][1,2,4]triazolo[4,3-a][1,4]diaza-6-yl)acetamido)piperazin-1-yl)-N-(2-(2,6-dioxpiperazin-3-yl)-1-oxoisoindolin-4-yl)-4-oxobutanamide] | < 20 | < 20 |
| Cc1sc2c(c1C)C(c1ccc(Cl)cc1)=N[C@@H](CC(=O)NN1CCN(C(=O)CNc3cccc4c3C(=O)N(C3CCC(=O)NC3=O)C4=O)CC1)c1nnc(C)n1-2 (some centres unmarked) [Example 4] | < 20 | < 20 |
| Cc1sc2c(c1C)C(c1ccc(Cl)cc1)=N[C@@H](CC(=O)NN1CCN(C(=O)CCNc3cccc4c3C(=O)N(C3CCC(=O)NC3=O)C4=O)CC1)c1nnc(C)n1-2 (some centres unmarked) [Example 5] | < 20 | < 20 |
| Cc1sc2c(c1C)C(c1ccc(Cl)cc1)=N[C@@H](CC(=O)NN1CCN(C(=O)CCOCCOCCNc3cccc4c3C(=O)N(C3CCC(=O)NC3=O)C4=O)CC1)c1nnc(C)n1-2 (some centres unmarked) [Example 8] | 20 to 100 | < 20 |
| Cc1sc2c(c1C)C(c1ccc(Cl)cc1)=N[C@@H](CC(=O)NN1CCN(C(=O)CCOCCOCCOCCNc3cccc4c3C(=O)N(C3CCC(=O)NC3=O)C4=O)CC1)c1nnc(C)n1-2 (some centres unmarked) [Example 9] | < 20 | 20 to 100 |
| Cc1sc2c(c1C)C(c1ccc(Cl)cc1)=N[C@@H](CC(=O)NN1CCN(C(=O)CNc3cccc4c3CN(C3CCC(=O)NC3=O)C4=O)CC1)c1nnc(C)n1-2 (some centres unmarked) [Example 11] | < 20 | < 20 |
| Cc1sc2c(c1C)C(c1ccc(Cl)cc1)=N[C@@H](CC(=O)NN1CCN(C(=O)CCNc3cccc4c3CN(C3CCC(=O)NC3=O)C4=O)CC1)c1nnc(C)n1-2 (some centres unmarked) [Example 12] | < 20 | < 20 |
| Cc1sc2c(c1C)C(c1ccc(Cl)cc1)=N[C@@H](CC(=O)NN1CCN(C(=O)COc3cccc4c3C(=O)N(C3CCC(=O)NC3=O)C4=O)CC1)c1nnc(C)n1-2 (some centres unmarked) [Example 15] | < 20 | < 20 |
| Cc1sc2c(c1C)C(c1ccc(Cl)cc1)=N[C@@H](CC(=O)N1CCN(NC(=O)CCC(=O)Nc3cccc4c3CN(C3CCC(=O)NC3=O)C4=O)CC1)c1nnc(C)n1-2 (some centres unmarked) [Example 16] | < 20 | < 20 |
| Cc1sc2c(c1C)C(c1ccc(Cl)cc1)=N[C@@H](CC(=O)N1CCN(NC(=O)CNc3cccc4c3C(=O)N(C3CCC(=O)NC3=O)C4=O)CC1)c1nnc(C)n1-2 (some centres unmarked) [Example 19] | < 20 | < 20 |
| Cc1sc2c(c1C)C(c1ccc(Cl)cc1)=N[C@@H](CC(=O)N1CCN(NC(=O)CCNc3cccc4c3C(=O)N(C3CCC(=O)NC3=O)C4=O)CC1)c1nnc(C)n1-2 (some centres unmarked) [Example 20] | < 20 | < 20 |
| Cc1sc2c(c1C)C(c1ccc(Cl)cc1)=N[C@@H](CC(=O)N1CCN(NC(=O)CNc3cccc4c3CN(C3CCC(=O)NC3=O)C4=O)CC1)c1nnc(C)n1-2 (some centres unmarked) [Example 26] | 20 to 100 | 20 to 100 |
| Cc1sc2c(c1C)C(c1ccc(Cl)cc1)=N[C@@H](CC(=O)NNC(=O)CCC(=O)Nc1cccc3c1CN(C1CCC(=O)NC1=O)C3=O)c1nnc(C)n1-2 (some centres unmarked) [Example 31] | 20 to 100 | 20 to 100 |
| Cc1sc2c(c1C)C(c1ccc(Cl)cc1)=N[C@@H](CC(=O)OC(C)(C)C)c1nnc(C)n1-2 [JQ1, tert-butyl(S)-2-(4-(4-chlorophenyl)-2,3,9-trimethyl-6H-thieno[3,2-f][1,2,4]triazolo[4,3-a][1,4]diazepine-6-yl)acetate, reference compound] | ≥ 100 | ≥ 100 |
| Cc1sc2c(c1C)C(c1ccc(Cl)cc1)=N[C@@H](CC(=O)NCCCCNC(=O)COc1cccc3c1C(=O)N(C1CCC(=O)NC1=O)C3=O)c1nnc(C)n1-2 (some centres unmarked) [dBET1, reference compound] | ≥ 100 | ≥ 100 |

— patent US12358925B2, “Targeted ubiquitination degradation BRD4 protein compound, preparation method therefor and application thereof” (CSPC ZHONGQI PHARMACEUTICAL TECHNOLOGY (SHIJIAZHUANG) CO., …, priority 2019, dated 2025)
